pIC50: −log10 of the molar value. Where two headings read alike, the source gives them in different places.
Biological target: T1, low-Km cAMP phosphodiesterase
T1 construct: gene Pde3b; not purified, mixture of isoenzymes
Assay: [3H]cAMP hydrolysis, paper chromatography
Format: biochemical, Rattus norvegicus
Conditions: 0.25 µM cAMP, 100 mM Tris-HCl pH 7.5, 4 mM MgCl2, 30 °C, 5 min, crude fraction, read-out: I50

Compound	pIC50	pIC50 (competitive)
Cn1c(=O)c2[nH]cnc2n(C)c1=O [theophylline]	3.46	–
CN(C)N=Nc1[nH]cnc1C(N)=O [DTIC, 5-(3,3-dimethyl-1-triazeno)imidazole-4-carboxamide]	–	3.10

Reference: publication PMC2010101 (British Journal of Cancer, 1979)
